For the series, the system named is canola. In words: canola germination as a function of phosphate application rate. Format: in vivo. Conditions: media containing increasing concentrations of phosphate application. The source says: FIG. 8 is a graph showing germination rate for canola as a function of phosphate applicant rate for various sources of phosphorus listed in Table 2.

On to `N.N.O=P(O)(O)O` [DAP, Di-Ammonium Phosphate], for which the “germination of canola seedlings” value is reported as “inhibited at even the lowest application rate”.

Regarding `N.O=P(O)(O)O` [MAP, Mono-Ammonium Phosphate], the “germination of canola seedlings” value is “inhibited at even the lowest application rate”.

(Values after patent US20240409475A1, “INTERMEDIATE-RELEASE FERTILIZERS AND METHODS FOR MAKING SAME” (OSTARA NUTRIENT RECOVERY TECHNOLOGES INC., priority 2021, published 2024).)
